Test results taken from patent US7439271B2, “Reduction of hair growth” (The Gillette Company, priority 2001, dated 2008).

Key:
[1] = test system: flank organ hair growth; assay: Golden Syrian hamster assay (flank organ hair mass); format: in vivo; conditions: topical, thirteen applications; for % Inhibition (hair mass reduction): vs vehicle treated side
Source text: Male intact Golden Syrian hamsters are considered acceptable models for human beard hair growth in that they display oval shaped flank organs, one on each side, each about 8 mm. in major diameter. These organs produce fine light colored hair typical of the animal pelage found on the body. In response to androgens the flank organs produce dark coarse hair similar to male human beard hair. To evaluate the effectiveness of a composition in reducing hair growth, the flank organs of each of a group of hamsters are depilated by applying a thioglycolate based chemical depilatory (Surgex) and/or shaved. To one organ of each animal 10 μl. of vehicle alone once a day is applied, while to the other organ of each animal an equal amount of vehicle containing the compound under evaluation is applied. After thirteen applications (one application per day for five days a week), the flank organs are shaved and the amount of recovered hair (hair mass) from each is weighed. Percent-reduction of hair growth is calculated by subtracting the hair mass (mg) value of the test compound treated side from the hair mass value of the vehicle treated side; the delta value obtained is then divided by the hair mass value of the vehicle treated side, and the resultant number is multiplied by 100.
The above-described assay will be referred to herein as the “Golden Syrian hamster” assay. Preferred compositions provide a reduction in hair growth of at least about 15% and more preferably at least about 20%, when tested in the Golden Syrian hamster assay. Compositions described in Example 1 (above) were tested in the Golden Syrian hamster assay. […] AZT, a well-characterized inhibitor of reverse transcriptase, inhibits telomerase by blocking the […] of the enzyme.

[2] = test system: human hair follicles; assay: Human hair follicle growth assay; format: cell-based; conditions: day 0 to day 6
Source text: Tissue source—Human skin was obtained from a plastic surgeon as a by-product of face-lift procedures. Immediately after removal, the skin was placed in Williams E medium containing antibiotics and refrigerated. The Williams E medium is a commercially obtained medium which has been formulated with essential nutrients for maintaining viability of tissues or cells such as of hair follicle in an in-vitro environment.
Hair Follicle Isolation and Culture—Human hair follicles in growth phase (anagen) were isolated from face-lift tissue under a dissecting scope using a scalpel and watchmakers forceps. The skin was sliced into thin strips exposing 2-3 rows of follicles that could readily be dissected. Follicles were placed into 0.5 ml Williams E medium supplemented with 2 mM L-glutamine, 10 μg/ml insulin, 100 ng/ml hydrocortisone, 100 units penicillin, 0.1 mg/ml streptomycin and 0.25 μg/ml amphotericin B. The follicles were incubated in 24 well plates (1 follicle/well) at 37° C. in an atmosphere of 5% CO2 and 95% air. Hair follicles were videorecorded in the 24-well plates under the dissecting scope under a power of 20×. Typically, hair follicle lengths were measured on day 0 (day follicles were placed in culture) and again on day 7. When testing compounds, the compound was included in the culture medium from time 0 and remained in the medium throughout the course of the experiment.
In this system follicle cells differentiate to form hair fiber and increase in length at a rate not dissimilar from that of humans, in vivo. Typically, hair fiber from these in-vitro follicles grow about 0.3 mm/day. […] This model of human hair growth is capable of identifying inhibitors of hair growth. The selective telomerase inhibitors -I, -IV and -V were obtained from Calbiochem, La Jolla, Calif. The data in Tables II-VI below show dose-dependent inhibition of human hair follicle growth by various compounds.

CC1COc2c(N3CCN(C)CC3)c(F)cc3c(=O)c(C(=O)O)cn1c23 (centres unmarked) [Ofloxacin, ofloxacin]
Left (mg): hair mass for vehicle with test compound ([1]; dose 5%): 1.56 ± .24 mg | % Inhibition (hair mass reduction) ([1]; dose 5%): 39 ± 7% | Length Increase (mm) ([2]; 0.01 μM): 1.51 ± .24 mm | Length Increase (mm) ([2]; 0.1 μM): 1.16 ± .12 mm | Length Increase (mm) ([2]; 1.0 μM, separate control 1.40 ± .17 mm): 0.43 ± .11 mm | Length Increase (mm) ([2]; 100 μM): 1.16 ± .12 mm | inhibition at 0.01 µM ([2]; Homo sapiens, 0.01 μM): 10 ± 14% | inhibition at 0.1 µM ([2]; Homo sapiens, 0.1 μM): 30 ± 7% | inhibition at 1 µM ([2]; Homo sapiens, 1.0 μM, separate control 1.40 ± .17 mm): 69 ± 8% | inhibition at 100 µM ([2]; Homo sapiens, 100 μM): 31 ± 7%

C[n+]1ccc(-c2c3nc(c(-c4cc[n+](C)cc4)c4ccc([nH]4)c(-c4cc[n+](C)cc4)c4nc(c(-c5cc[n+](C)cc5)c5ccc2[nH]5)C=C4)C=C3)cc1 [TMPyP4, meso-5,10,15,20-tetrakis-(N-methyl-4-pyridy)porphine]
Left (mg): hair mass for vehicle with test compound ([1]; dose 1%): 1.73 ± .23 mg | % Inhibition (hair mass reduction) ([1]; dose 1%): 28 ± 8% | % Inhibition of human hair growth ([2]; 73 μM): 52 ± 9% | Length Increase (mm) ([2]; 73 μM): .468 ± .09 mm

O=C1c2ccc3c4ccc5c6c(ccc(c7ccc(c2c37)C(=O)N1CCN1CCCCC1)c64)C(=O)N(CCN1CCCCC1)C5=O [Telomerase Inhibitor IV, N,N′-bis[2-(1-piperidino)ethyl]-3,4,9,10-perylenetetracarboxylic diimide]
% Inhibition of human hair growth ([2]; 10 μM): 10 ± 10% | Length Increase (mm) ([2]; 10 μM): 1.39 ± .16 mm | % Inhibition of human hair growth ([2]; 100 μM): 48 ± 8% | Length Increase (mm) ([2]; 100 μM): 0.80 ± .12 mm

C[N+]1(CCC(=O)Nc2ccc3c(c2)C(=O)c2ccc(NC(=O)CC[N+]4(C)CCCCC4CO)cc2C3=O)CCCCC1CO.[I-].[I-] (centres unmarked) [Telomerase Inhibitor I]
% Inhibition of human hair growth ([2]; 10 μM): 34 ± 6% | Length Increase (mm) ([2]; 10 μM): 1.18 ± .10 mm | % Inhibition of human hair growth ([2]; 100 μM): 84 ± 5% | Length Increase (mm) ([2]; 100 μM): .286 ± .09 mm

O=C(CCN1CCCCC1)Nc1ccc2c(c1)C(=O)c1ccc(NC(=O)CCN3CCCCC3)cc1C2=O [Telomerase Inhibitor V, 2,6-bis[3-(N-piperidino)propionamido]anthracene-9,10-dione]
% Inhibition of human hair growth ([2]; 10 μM): 14 ± 8% | Length Increase (mm) ([2]; 10 μM): 1.32 ± .13 mm | % Inhibition of human hair growth ([2]; 100 μM): 68 ± 19% | Length Increase (mm) ([2]; 100 μM): 0.25 ± .30 mm
